Patent US20210154188A1, “ALK5 INHIBITORS, CONJUGATES, AND USES THEREOF” (SILVERBACK THERAPEUTICS, INC., priority 2018, published 2021)

How the values were obtained:
[1] = test system: TGFb/SMAD Signaling Pathway SBE reporter cell line; experiment: TGFb reporter assay (luciferase); assay type: cell-based; conditions: 5-6 h preincubation, then TGFb, 18 h, luminescence
Method: TGFb/SMAD Signaling Pathway SBE reporter cell line was obtained from BPS Bioscience. Cells were passed/expanded/stored in liquid nitrogen per supplier's instruction with the exception that growth media was changed to DMEM-C with Geneticin (DMEM supplemented with 10% fetal bovine serum, 1× NEAA, 1 mM Pyruvate, 2 mM glutamine, 50 μg/mL penicillin, 50 U/mL streptomycin and 400 ug/mL of Geneticin). The assay media was MEM supplemented with 0.5% fetal bovine serum, 1× NEAA, 1 mM Pyruvate, 50 μg/mL penicillin and 50 U/mL streptomycin.
Reporter cells were harvested from the tissue culture flasks by incubation in small quantity of Versene at room temperature for three to five minutes after the media in the flask was removed and cells rinsed with PBS. Cells were counted and diluted in the assay media at ˜0.8×10^6 cells/mL then 50 uL/well were added to 96-well assay plate. Test samples (at desired concentrations diluted in assay media) were added to assay plate containing the 50 uL/well of cells (or media only), 50 uL per well, and incubated for 5-6 hours at 37° C. in a 5% CO2 humidified incubator. After that time, 15 uL of TGFb diluted to 12.5 ng/mL in the assay media was added to the plate. Controls included TGFb titration (from 25 to 0 ng/mL) without inhibitors, and media only (without cells, inhibitor or TGFb). Plates were incubated at 37° C. in a 5% CO2 humidified incubator for 18 h. Luciferase substrate solution was subsequently added at 75 uL per well, incubated in dark with shaking at room temperature for 10 min, and luminescence was measured using a luminometer.

ALK5 = molecular target: T1, ALK5 (Homo sapiens, UniProt P36897); experiment: ALK5 enzyme inhibition assay (33P-ATP filter-binding, Reaction Biology Corp); assay type: biochemical; conditions: casein substrate 1 mg/mL, 10 uM ATP
T1 construct: purchased Reaction Biology Corp (Malvern, PA)
T1 sequence (P36897 34-503): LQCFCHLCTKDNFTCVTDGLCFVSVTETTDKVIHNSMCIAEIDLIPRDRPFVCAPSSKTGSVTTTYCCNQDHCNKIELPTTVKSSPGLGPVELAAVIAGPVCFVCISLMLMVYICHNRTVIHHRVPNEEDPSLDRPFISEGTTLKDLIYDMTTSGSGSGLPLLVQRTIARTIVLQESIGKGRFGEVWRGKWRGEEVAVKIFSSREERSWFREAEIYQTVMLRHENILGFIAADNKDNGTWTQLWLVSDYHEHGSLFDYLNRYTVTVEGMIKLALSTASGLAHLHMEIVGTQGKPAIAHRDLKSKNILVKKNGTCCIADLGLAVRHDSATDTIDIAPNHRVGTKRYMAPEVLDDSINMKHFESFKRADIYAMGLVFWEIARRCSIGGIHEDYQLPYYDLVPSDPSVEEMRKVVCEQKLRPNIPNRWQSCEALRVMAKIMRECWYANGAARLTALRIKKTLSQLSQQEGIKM
Method: ALK5 enzyme inhibition assays were performed by Reaction Biology Corp (Malvern, PA). 1 mg/mL of peptide subtrate (casein) and 10 uM ATP were prepared in a mixture of fresh reaction buffer. The kinase was delivered into the substrate solution which was gently mixed. Compounds in 100% DMSO were added to the kinase reaction mixture by Acoustic technology (Echo550; nanoliter range) and the mixture was incubated for 20 min at room temperature. ^33P-ATP (Specific activity 10 uCi/uL) was added into the reaction mixture to initiate the reaction and the reaction mixture was incubated for 2 hours at room temperature. Radioactivity was detected by filter-binding method and kinase activity data were expressed as the percent remaining kinase activity in test samples compared to vehicle (dimethyl sulfoxide) reactions. IC50 values and curve fits were obtained using Prism (GraphPad Software).

| Structure (SMILES) | IC50 [1] | IC50 (ALK5) |
| --- | --- | --- |
| Cc1cccc(-c2nc(CN3Cc4ccccc4C3=O)[nH]c2-c2ccc3ncnn3c2)n1 [Compound 1.56, 2-((5-([1,2,4]triazolo[1,5-a]pyridin-6-yl)-4-(6-methylpyridin-2-yl)-1H-imidazol-2-yl)methyl)isoindolin-1-one] | 10 to 100 nM | 100 to 1000 nM |
| Cc1cccc(-c2nc(CNc3cncc(CN)c3)[nH]c2-c2ccc3ncnn3c2)n1 [Compound 1.19, N-((5-([1,2,4]triazolo[1,5-a]pyridin-6-yl)-4-(6-methylpyridin-2-yl)-1H-imidazol-2-yl)methyl)-5-(aminomethyl)pyridin-3-amine] | 100 to 1000 nM | 1000 to 10000 nM |
| Cc1cccc(-c2nc(CN[C@H]3c4ccccc4C[C@@H]3O)[nH]c2-c2ccc3ncnn3c2)n1 [Compound 1.45, (1S,2S)-1-(((5-([1,2,4]triazolo[1,5-a]pyridin-6-yl)-4-(6-methylpyridin-2-yl)-1H-imidazol-2-yl)methyl)amino)-2,3-dihydro-1H-inden-2-ol] | 10 to 100 nM | 100 to 1000 nM |
| Cc1cccc(-c2nc(CNC3CCCCC3)[nH]c2-c2ccc3ncnn3c2)n1 [Compound 1.12, 1-(5-([1,2,4]triazolo[1,5-a]pyridin-6-yl)-4-(6-methylpyridin-2-yl)-1H-imidazol-2-yl)-N-(cyclohexyl)methanamine] | 10 to 100 nM | 100 to 1000 nM |
| Cc1cccc(-c2nc(CN3CCc4ccccc4C3)[nH]c2-c2ccn3ncnc3c2)n1 [Compound 1.40, 2-((5-([1,2,4]triazolo[1,5-a]pyridin-7-yl)-4-(6-methylpyridin-2-yl)-1H-imidazol-2-yl)methyl)-1,2,3,4-tetrahydroisoquinoline] | 100 to 1000 nM | 100 to 1000 nM |
| Cc1cccc(-c2nc(CNCc3cccc4ccccc34)[nH]c2-c2ccc3ncnn3c2)n1 [Compound 1.57, 1-(5-([1,2,4]triazolo[1,5-a]pyridin-6-yl)-4-(6-methylpyridin-2-yl)-1H-imidazol-2-yl)-N-(naphthalen-1-ylmethyl)methanamine] | 10 to 100 nM | 10 to 100 nM |
| Cc1cccc(-c2nc(CNc3ccc4c(c3)CCNC4)[nH]c2-c2ccc3ncnn3c2)n1 [Compound 1.2, N-((5-([1,2,4]triazolo[1,5-a]pyridin-6-yl)-4-(6-methylpyridin-2-yl)-1H-imidazol-2-yl)methyl)-1,2,3,4-tetrahydroisoquinolin-6-amine] | 100 to 1000 nM | 100 to 1000 nM |
| Cc1cccc(-c2nc(CNc3cccc4c3CNCC4)[nH]c2-c2ccc3ncnn3c2)n1 [Compound 1.3, N-((5-([1,2,4]triazolo[1,5-a]pyridin-6-yl)-4-(6-methylpyridin-2-yl)-1H-imidazol-2-yl)methyl)-1,2,3,4-tetrahydroisoquinolin-8-amine] | 100 to 1000 nM | 100 to 1000 nM |
| Cc1cccc(-c2nc(CNc3cccc4c3CCNC4)[nH]c2-c2ccc3ncnn3c2)n1 [Compound 1.4, N-((5-([1,2,4]triazolo[1,5-a]pyridin-6-yl)-4-(6-methylpyridin-2-yl)-1H-imidazol-2-yl)methyl)-1,2,3,4-tetrahydroisoquinolin-5-amine] | 100 to 1000 nM | 100 to 1000 nM |
| Cc1cccc(-c2nc(CN[C@@H]3CCc4ccccc43)[nH]c2-c2ccc3ncnn3c2)n1 [Compound 1.30, (R)-N-((5-([1,2,4]triazolo[1,5-a]pyridin-6-yl)-4-(6-methylpyridin-2-yl)-1H-imidazol-2-yl)methyl)-2,3-dihydro-1H-inden-1-amine] | 10 to 100 nM | 100 to 1000 nM |
| Cc1cccc(-c2nc(CNc3ccc4c(c3)CNCC4)[nH]c2-c2ccc3ncnn3c2)n1 [Compound 1.1, N-((5-([1,2,4]triazolo[1,5-a]pyridin-6-yl)-4-(6-methylpyridin-2-yl)-1H-imidazol-2-yl)methyl)-1,2,3,4-tetrahydroisoquinolin-7-amine] | 100 to 1000 nM | 100 to 1000 nM |
| Cc1cccc(-c2nc(CNC3Cc4ccccc4C3)[nH]c2-c2ccc3ncnn3c2)n1 [Compound 1.27, N-((5-([1,2,4]triazolo[1,5-a]pyridin-6-yl)-4-(6-methylpyridin-2-yl)-1H-imidazol-2-yl)methyl)-2,3-dihydro-1H-inden-2-amine] | 10 to 100 nM | 100 to 1000 nM |
| Cc1cccc(-c2nc(CNC3CCCC3)[nH]c2-c2ccc3ncnn3c2)n1 [Compound 1.11, 1-(5-([1,2,4]triazolo[1,5-a]pyridin-6-yl)-4-(6-methylpyridin-2-yl)-1H-imidazol-2-yl)-N-(cyclopentyl)methanamine] | 10 to 100 nM | 100 to 1000 nM |
| Cc1cccc(-c2nc(CNC3CCCCCC3)[nH]c2-c2ccc3ncnn3c2)n1 [Compound 1.13, 1-(5-([1,2,4]triazolo[1,5-a]pyridin-6-yl)-4-(6-methylpyridin-2-yl)-1H-imidazol-2-yl)-N-(cycloheptyl)methanamine] | 10 to 100 nM | 100 to 1000 nM |
| Cc1cccc(-c2nc(CNCCc3ccnc4ccccc34)[nH]c2-c2ccc3ncnn3c2)n1 [Compound 1.60, N-((5-([1,2,4]triazolo[1,5-a]pyridin-6-yl)-4-(6-methylpyridin-2-yl)-1H-imidazol-2-yl)methyl)-2-(quinolin-4-yl)ethan-1-amine] | 10 to 100 nM | 100 to 1000 nM |
| Cc1cccc(-c2nc(CNc3cccc4c3CNC4)[nH]c2-c2ccc3ncnn3c2)n1 [Compound 1.31, N-((5-([1,2,4]triazolo[1,5-a]pyridin-6-yl)-4-(6-methylpyridin-2-yl)-1H-imidazol-2-yl)methyl)isoindolin-4-amine] | 100 to 1000 nM | 100 to 1000 nM |
| Cc1cccc(-c2nc(CN[C@@H]3c4ccccc4C[C@H]3O)[nH]c2-c2ccc3ncnn3c2)n1 [Compound 1.46, (1R,2R)-1-(((5-([1,2,4]triazolo[1,5-a]pyridin-6-yl)-4-(6-methylpyridin-2-yl)-1H-imidazol-2-yl)methyl)amino)-2,3-dihydro-1H-inden-2-ol] | 10 to 100 nM | 100 to 1000 nM |
| Cc1cccc(-c2nc(CN3CCCCC3)[nH]c2-c2ccn3ncnc3c2)n1 [Compound 1.35, 7-(4-(6-methylpyridin-2-yl)-2-(piperidin-1-ylmethyl)-1H-imidazol-5-yl)-[1,2,4]triazolo[1,5-a]pyridine] | 100 to 1000 nM | 1000 to 10000 nM |
| Cc1cccc(-c2nc(CNCC3CCCCC3)[nH]c2-c2ccc3ncnn3c2)n1 [Compound 1.42, 1-(5-([1,2,4]triazolo[1,5-a]pyridin-6-yl)-4-(6-methylpyridin-2-yl)-1H-imidazol-2-yl)-N-(cyclohexylmethyl)methanamine] | 10 to 100 nM | 100 to 1000 nM |
| Cc1cccc(-c2nc(CN[C@H]3c4ccccc4C[C@H]3O)[nH]c2-c2ccc3ncnn3c2)n1 [Compound 1.43, (1S,2R)-1-(((5-([1,2,4]triazolo[1,5-a]pyridin-6-yl)-4-(6-methylpyridin-2-yl)-1H-imidazol-2-yl)methyl)amino)-2,3-dihydro-1H-inden-2-ol] | 10 to 100 nM | 10 to 100 nM |
| Cc1cccc(-c2nc(CNCc3ccc4ccccc4c3)[nH]c2-c2ccc3ncnn3c2)n1 [Compound 1.58, 1-(5-([1,2,4]triazolo[1,5-a]pyridin-6-yl)-4-(6-methylpyridin-2-yl)-1H-imidazol-2-yl)-N-(naphthalen-2-ylmethyl)methanamine] | 100 to 1000 nM | 100 to 1000 nM |
| Cc1cccc(-c2nc(CNC3CCc4ccccc43)[nH]c2-c2ccc3ncnn3c2)n1 (racemic) [Compound 1.26, rac-N-((5-([1,2,4]triazolo[1,5-a]pyridin-6-yl)-4-(6-methylpyridin-2-yl)-1H-imidazol-2-yl)methyl)-2,3-dihydro-1H-inden-1-amine] | 10 to 100 nM | 100 to 1000 nM |
| Cc1cccc(-c2nc(CNC3CCC3)[nH]c2-c2ccc3ncnn3c2)n1 [Compound 1.10, 1-(5-([1,2,4]triazolo[1,5-a]pyridin-6-yl)-4-(6-methylpyridin-2-yl)-1H-imidazol-2-yl)-N-(cyclobutyl)methanamine] | 100 to 1000 nM | 1000 to 10000 nM |
